Converted amounts (≈) assume the structure as drawn.
What follows are compounds tested on Staphylococcus aureus Smith (assay: MIC assay, modified agar dilution (CLSI), S. aureus Smith). Conditions: Staphylococcus aureus, agar dilution, 35° C., 16-20 hr; lowest concentration that completely inhibited growth; read-out: S_aureus_Smith_WT_MIC.
Assay type: cell-based
Method in brief: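 Strains were spotted at about 1×10^4 CFU onto compound-containing Mueller Hinton agar (two-fold series, 128-0.001 μg/mL), horse blood 5% added for pneumococcus and enterococcus. MIC read after 16-20 hr at 35 °C, following a modified CLSI agar dilution method.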

MIC [µg/mL] | SMILES
0.125 (≈ 0.261 µM) | O=C1COc2ccc(CNC34CCC(CCn5c(=O)ccc6ncc(F)cc65)(CC3)OC4)nc2N1 [Example 119, 6-((1-(2-(7-Fluoro-2-oxo-1,5-naphthyridin-1(2H)-yl)ethyl)-2-oxabicyclo[2.2.2]octan-4-ylamino)methyl)-2H-pyrido[3,2-b][1,4]oxazin-3(4H)-one]
0.125 (≈ 0.228 µM) | O=C1COc2ccc(CNC34CCC(CCc5c(F)cnc6ccc(N7CCOC7=O)nc56)(CC3)OC4)nc2N1 [Example 292, 6-((1-(2-(3-Fluoro-6-(2-oxooxazolidin-3-yl)-1,5-naphthyridin-4-yl)ethyl)-2-oxabicyclo[2.2.2]octan-4-ylamino)methyl)-2H-pyrido[3,2-b][1,4]oxazin-3(4H)-one]
0.5 (≈ 0.911 µM) | O=C1COc2ccc(CNC34CCC(CCc5c(F)cnc6ccc(N7CCOCC7)nc56)(CC3)OC4)nc2N1 [Example 28, 6-((1-(2-(3-Fluoro-6-morpholino-1,5-naphthyridin-4-yl)ethyl)-2-oxabicyclo[2.2.2]octan-4-ylamino)methyl)-2H-pyrido[3,2-b][1,4]oxazin-3(4H)-one]
0.125 (≈ 0.268 µM) | COc1ccc2ncc(F)c(CCC34CCC(NCc5cnc(N(C)C)nc5)(CC3)CO4)c2n1 [Example 85, 5-((1-(2-(3-Fluoro-6-methoxy-1,5-naphthyridin-4-yl)ethyl)-2-oxabicyclo[2.2.2]octan-4-ylamino)methyl)-N,N-dimethylpyrimidin-2-amine]
0.5 (≈ 0.959 µM) | COc1cc2ncc(=O)n(CCC34CCC(NCc5ccc6c(n5)NC(=O)CO6)(CC3)CO4)c2cc1OC [Example 115, 6-((1-(2-(6,7-Dimethoxy-2-oxoquinoxalin-1(2H)-yl)ethyl)-2-oxabicyclo[2.2.2]octan-4-ylamino)methyl)-2H-pyrido[3,2-b][1,4]oxazin-3(4H)-one]
0.125 (≈ 0.221 µM) | O=C1COc2ccc(CNC34CCC(CCc5c(F)cnc6ccc(OCC7(O)COC7)nc56)(CC3)OC4)nc2N1 [Example 170, 6-((1-(2-(3-Fluoro-6-((3-hydroxyoxetan-3-yl)methoxy)-1,5-naphthyridin-4-yl)ethyl)-2-oxabicyclo[2.2.2]octan-4-ylamino)methyl)-2H-pyrido[3,2-b][1,4]oxazin-3(4H)-one]
4 (≈ 7.9 µM) | COc1ccc2ncc(F)c(CC(O)C34CCC(NCc5cc6[nH]c(=O)cnc6cn5)(CC3)CO4)c2n1 (stereo not drawn) [Example 182, 7-[({1-[2-(3-Fluoro-6-methoxy-1,5-naphthyridin-4-yl)-1-hydroxyethyl]-2-oxabicyclo[2.2.2]oct-4-yl}amino)methyl]pyrido[3,4-b]pyrazin-2(1H)-one]
0.063 (≈ 0.124 µM) | COc1cc(C)c2ncc(F)c(CCC34CCC(NCc5ccc6c(n5)NC(=O)CO6)(CC3)CO4)c2c1 [Example 139, 6-((1-(2-(3-Fluoro-6-methoxy-8-methylquinolin-4-yl)ethyl)-2-oxabicyclo[2.2.2]octan-4-ylamino)methyl)-2H-pyrido[3,2-b][1,4]oxazin-3(4H)-one]
0.016 | COc1ccc2ccc(=O)n(CCC34CCC(NCc5ccc6c(n5)NC(=O)CO6)(CC3)CO4)c2n1.Cl [Example 131, 6-((1-(2-(7-Methoxy-2-oxo-1,8-naphthyridin-1(2H)-yl)ethyl)-2-oxabicyclo[2.2.2]octan-4-ylamino)methyl)-2H-pyrido[3,2-b][1,4]oxazin-3(4H)-one Hydrochloride]
0.031 (≈ 0.0608 µM) | COc1ccc2ncc(Cl)c(OCC34CCC(NCc5ccc6c(n5)NC(=O)CO6)(CC3)CC4)c2n1 [Example 15, 6-((4-((3-Chloro-6-methoxy-1,5-naphthyridin-4-yloxy)methyl)bicyclo[2.2.2]octan-1-ylamino)methyl)-2H-pyrido[3,2-b][1,4]oxazin-3(4H)-one]
0.25 | COc1ccc2ncc(F)c(CCC34CCC(NCc5ccc6c(n5)NC(=O)C(C)(C)O6)(CC3)CO4)c2n1.Cl [Example 99, 6-((1-(2-(3-Fluoro-6-methoxy-1,5-naphthyridin-4-yl)ethyl)-2-oxabicyclo[2.2.2]octan-4-ylamino)methyl)-2,2-dimethyl-2H-pyrido[3,2-b][1,4]oxazin-3(4H)-one]
0.031 (≈ 0.0631 µM) | COc1ccc2ncc(O)c(CCC34CCC(NCc5ccc6c(n5)NC(=O)CO6)(CC3)CO4)c2n1 [Example 124, 6-(((1-(2-(3-Hydroxy-6-methoxy-1,5-naphthyridin-4-yl)ethyl)-2-oxabicyclo[2.2.2]octan-4-yl)amino)methyl)-2H-pyrido[3,2-b][1,4]oxazin-3(4H)-one]
0.75 | COc1ccc2ncc(F)c(C[C@@H](O)C34CCC(NCc5cc6c(cn5)OCCO6)(CC3)CC4)c2n1.Cl (single isomer, unassigned) [Example 200]
0.06 | COc1ccc2ncc(F)c(C[C@H](O)C34CCC(NCc5ccc6c(c5)NC(=O)CS6)(CC3)CO4)c2n1.Cl [Example 204, (S)-1-(2-(3-Fluoro-6-methoxy-1,5-naphthyridin-4-yl)-1-hydroxyethyl)-N-((3-oxo-3,4-dihydro-2H-benzo[b][1,4]thiazin-6-yl)methyl)-2-oxabicyclo[2.2.2]octan-4-aminium chloride]
0.063 (≈ 0.131 µM) | COc1ccc2ncc(F)c(CCC34CCC(NCc5cc6c(cn5)OCCO6)(CC3)CO4)c2n1 [Example 61, N-((2,3-Dihydro-[1,4]dioxino[2,3-c]pyridin-7-yl)methyl)-1-(2-(3-fluoro-6-methoxy-1,5-naphthyridin-4-yl)ethyl)-2-oxabicyclo[2.2.2]octan-4-amine]
0.5 (≈ 0.885 µM) | NCCCCCOc1ccc2ncc(F)c(CCC34CCC(NCc5ccc6c(n5)NC(=O)CO6)(CC3)CO4)c2n1 [Example 41, 6-((1-(2-(6-(5-Aminopentyloxy)-3-fluoro-1,5-naphthyridin-4-yl)ethyl)-2-oxabicyclo[2.2.2]octan-4-ylamino)methyl)-2H-pyrido[3,2-b][1,4]oxazin-3(4H)-one]
0.25 (≈ 0.494 µM) | CN(C)c1ccc2ncc(F)c(CCC34CCC(NCc5ccc6c(n5)NC(=O)CO6)(CC3)CO4)c2n1 [Example 29, 6-((1-(2-(6-(Dimethylamino)-3-fluoro-1,5-naphthyridin-4-yl)ethyl)-2-oxabicyclo[2.2.2]octan-4-ylamino)methyl)-2H-pyrido[3,2-b][1,4]oxazin-3(4H)-one]
0.031 | COc1ccc2ncc(Cl)c(C#CC34CCC(NCc5ccc6c(n5)NC(=O)CO6)(CC3)CC4)c2n1.Cl [Example 6, 6-((4-((3-Chloro-6-methoxy-1,5-naphthyridin-4-yl)ethynyl)bicyclo[2.2.2]octan-1-ylamino)methyl)-2H-pyrido[3,2-b][1,4]oxazin-3(4H)-one Hydrochloride]
1 (≈ 1.98 µM) | COc1ccc2c(n1)c(CCC13CCC(NCc4ccc5c(n4)NC(=O)CO5)(CC1)CO3)cc(=O)n2C [Example 49, 6-(((1-(2-(6-Methoxy-1-methyl-2-oxo-1,2-dihydro-1,5-naphthyridin-4-yl)ethyl)-2-oxabicyclo[2.2.2]octan-4-yl)amino)methyl)-2H-pyrido[3,2-b][1,4]oxazin-3(4H)-one]
0.25 (≈ 0.478 µM) | NCCOc1ccc2ncc(F)c(CCC34CCC(NCc5ccc6c(n5)NC(=O)CO6)(CC3)CO4)c2n1 [Example 40, 6-((1-(2-(6-(2-Aminoethoxy)-3-fluoro-1,5-naphthyridin-4-yl)ethyl)-2-oxabicyclo[2.2.2]octan-4-ylamino)methyl)-2H-pyrido[3,2-b][1,4]oxazin-3(4H)-one]
2 | COc1ccc2ncc(C#N)c(CCC34CCC(NCc5cc6ccccc6n(C)c5=O)(CC3)CO4)c2n1.Cl [Example 46, 6-Methoxy-4-(2-(4-((1-methyl-2-oxo-1,2-dihydroquinolin-3-yl)methylamino)-2-oxabicyclo[2.2.2]octan-1-yl)ethyl)-1,5-naphthyridine-3-carbonitrile Hydrochloride]
32 (≈ 66.7 µM) | COc1ccc2ncc(F)c(CCC34CCC(NCc5ccc6oc(=O)[nH]c6n5)(CC3)CO4)c2n1 [Example 107, 5-((1-(2-(3-Fluoro-6-methoxy-1,5-naphthyridin-4-yl)ethyl)-2-oxabicyclo[2.2.2]octan-4-ylamino)methyl)oxazolo[4,5-b]pyridin-2(3H)-one]
4 (≈ 7.51 µM) | COc1ccc2ncc(F)c(CCC34CCC(NCc5c(OC)c6ccccc6n(C)c5=O)(CC3)CO4)c2n1 [Example 103, 3-((1-(2-(3-Fluoro-6-methoxy-1,5-naphthyridin-4-yl)ethyl)-2-oxabicyclo[2.2.2]octan-4-ylamino)methyl)-4-methoxy-1-methylquinolin-2(1H)-one]
16 (≈ 29 µM) | COC(=O)N(Cc1ccc2c(n1)NC(=O)CO2)C12CCC(CCc3c(F)cnc4ccc(OC)nc34)(CC1)OC2 [Example 168, Methyl {1-[2-(3-Fluoro-6-methoxy-1,5-naphthyridin-4-yl)ethyl]-2-oxabicyclo[2.2.2]oct-4-yl}[(3-oxo-3,4-dihydro-2H-pyrido[3,2-b][1,4]oxazin-6-yl)methyl]carbamate]

SMILES | MIC [µg/mL]
COc1ccc2ncc(F)c(CCC34CCC(NCc5ccc6c(n5)OCCN6)(CC3)CO4)c2n1 [Example 207, 6-(((1-(2-(3-Fluoro-6-methoxy-1,5-naphthyridin-4-yl)ethyl)-2-oxabicyclo[2.2.2]octan-4-yl)ammonio)methyl)-2,3-dihydro-1H-pyrido[2,3-b][1,4]oxazin-1-ium chloride] | 0.5
N#Cc1ccc2c(c1)N(CCC13CCC(NCc4ccc5c(n4)NC(=O)CO5)(CC1)CO3)C(=O)CO2 [Example 202, 1-(2-(6-Cyano-3-oxo-2H-benzo[b][1,4]oxazin-4(3H)-yl)ethyl)-N-((3-oxo-3,4-dihydro-2H-pyrido[3,2-b][1,4]oxazin-6-yl)methyl)-2-oxabicyclo[2.2.2]octan-4-aminium chloride] | 0.25

Same assay, conditions: agar dilution, 35° C., 16-20 hr; lowest concentration that completely inhibited growth; Hydrochloride

SMILES | S_aureus_Smith_WT_MIC [µg/mL]
COc1ccc2ncc(F)c(C(O)C(O)C34CCC(NCc5ccc6c(n5)NC(=O)CO6)(CC3)CO4)c2n1.Cl (single isomer, unassigned) [Example 26a, 6-((1-(2-(3-Fluoro-6-methoxy-1,5-naphthyridin-4-yl)-1,2-dihydroxyethyl)-2-oxabicyclo[2.2.2]octan-4-ylamino)methyl)-2H-pyrido[3,2-b][1,4]oxazin-3(4H)-one Hydrochloride] | 0.250

Reference: patent US20140243302A1, “BRIDGED BICYCLIC COMPOUNDS FOR THE TREATMENT OF BACTERIAL INFECTIONS” (priority 2011, published 2014)
